In patent US20230278987A1, “Antimicrobial Compounds and Methods” (Curza Global, LLC, priority 2019, published 2023):
pIC50: −log10 of the molar value. ≈ marks a conversion by molar mass, not a printed value. Counter-ions that a name gives are not always drawn. Like-named read-outs stand apart in the source and are kept apart here.

Key:
S.aureus (Sa) = experiment: Broth microdilution MIC against S.aureus (Sa); format: cell-based; settings: Staphylococcus aureus
Description: (§1) A certified BSL-2 laboratory was used for testing. Compounds were evaluated using the broth microdilution minimum inhibitory concentration (MIC) and minimum bactericidal concentration (MBC) assays defined by Clinical and Laboratory Standards Institute (CLSI) in the M26-A guideline against S.aureus (Sa), E.coli (Ec), K.pneumoniae (Kp), A.baumannii (Ab), E.faecalis (Ef) and P.aeruginosa (Pa).
(§2) MICs were determined using the Clinical Laboratory and Standards Institute (CLSI) Broth Microdilution Method with slight modification. Clinical and Laboratory Standards Institute (2012). “Methods for dilution antimicrobial susceptibility tests for bacteria that grow aerobically; approved standard, 9th ed. M07-A9. Clinical and Laboratory Standards Institute, Wayne, PA.” Serial two-fold dilutions of compounds are prepared in sterile clear roundbottom 96-well plates.
(§3) To prepare microdilution trays, two-fold dilutions of antimicrobial agent are prepared in growth medium: Cation-Adjusted Mueller-Hinton Broth (CAMHB), or CAMHB supplemented with sodium bicarbonate (6.25 or 25 mM final concentration prepared from a 1.0 M stock solution) or CAMHB supplemented with heat inactivated human serum (Fisher Cat. # BP2657100) 0-50% by adding 200 µL of the highest concentration to be tested (64 µg/mL, for example) in row A, mixing and transferring 100 µL from row A to 100 µL growth medium in row B, then repeating the mixing and transferring through row H of the 96-well plate, discarding the excess 100 µL remaining. This slight modification to the CLSI protocol enables evaluation of MICs for 3 compounds per plate in triplicate, albeit with only 8 compound dilutions (CLSI protocol enables 2 compounds in triplicate with 10 dilutions). Bacterial suspensions are added to a final concentration of 5 × 10^4 CFU/well by adding 5 µL of a 1:10 dilution of a 0.5 McFarland suspension (1 × 10^8 CFU/mL) for each bacterium evaluated. Bacterial suspensions were prepared using the growth method described by CLSI. Well-isolated colonies (3-5 from an agar plate) were selected using a sterile loop and used to inoculate a tube containing 4 mL of CAMHB. The cultures are incubated at 35 ± 2° C. until it achieves or exceeds the turbidity of the 0.5 McFarland standard, determined by measuring A600nm (usually two to six hours). When growth exceeds a 0.5 McFarland standard, the turbidity is adjusted with broth to be equivalent to a 0.5 McFarland standard.

E.coli (Ec) = experiment: Broth microdilution MIC against E.coli (Ec); format: cell-based; settings: Escherichia coli
Description: as §1, §2, §3

P.aeruginosa (Pa) = experiment: Broth microdilution MIC against P.aeruginosa (Pa); format: cell-based; settings: Pseudomonas aeruginosa
Description: as §1, §2, §3

A.baumannii (Ab) = experiment: Broth microdilution MIC against A.baumannii (Ab); format: cell-based; settings: Acinetobacter baumannii
Description: as §1, §2, §3

E.faecalis (Ef) = experiment: Broth microdilution MIC against E.faecalis (Ef); format: cell-based; settings: Enterococcus faecalis
Description: as §1, §2, §3

[1] = system: E.coli S30 extract (bacterial protein synthesis); experiment: E.coli S30 extract: inhibition of bacterial protein synthesis (luciferase); format: biochemical; settings: 37° C. for 1 hour
Description: E.coli S30 extract: Inhibition of bacterial protein synthesis was determined using the E.coli S30 Extract System for Circular DNA (Promega catalog #L-2010) and Luciferase Assay Reagent (Promega catalog #E1500) with slight modifications to a published protocol. Fyfe, C., Sutcliffe, J.A. and Grossman, T.H. (2012) “Development and characterization of a Pseudomonas aeruginosa in vitro coupled transcription-translation assay system for evaluation of translation inhibitors” J. Microbiol. Methods 90(3), 256-261.
Compounds were serial diluted in 0.5 mL microcentrifuge tubes by mixing and transferring 50 µL from the highest concentration to 50 µL of water, mixing and transferring 50 µL of this 2-fold dilution to 50 µL of water. This mixing and transferring was repeated so that there are a total of 8 tubes with serial dilutions of compound at 10× the desired screening concentration that are ultimately diluted to 1× by the addition of S30 luciferase synthesis mixture. Serial dilutions of compounds were added (2 µL) to wells in a black round bottom 96-well plate. Water (2 µL) was used as a “no inhibitor” control in 4 wells/plate. No DNA control reaction mixture (20 µL; see below) was used as a control in 4 wells/plate for background luminescence. S30 luciferase synthesis mixture (18 µL; see below) was added to wells with compounds or water mixture and incubated at 37° C. for 1 hour. Reactions were stopped by transferring to 4° C. refrigerator for 5 minutes then 25 µL of luciferase activity mix was added. Luminescence was measured using a BioTek Synergy HTX plate reader. % Inhibition was determined relative to no inhibitor controls.
S30 luciferase synthesis mixture: • 445 µL S30 extract, circular • 712 µL S30 Premix without amino acids • 4.45 µL pBESTluc™ DNA (1 µg/ µL) • 78 µL complete amino acid mixture • 267 µL water
No DNA control: • 20 µL S30 extract, circular • 32 µL S30 Premix without amino acids • 7 µL complete amino acid mixture • 21 µL water

[2] = target: Rabbit Reticulocyte Lysate (eukaryotic protein synthesis); experiment: Rabbit Reticulocyte Lysate: inhibition of eukaryotic protein synthesis (luciferase); format: biochemical; settings: 30° C. for 90 minutes, read-out: retic. IC50
Description: Inhibition of eukaryotic protein synthesis was determined using the Rabbit Reticulocyte Lysate System, Nuclease-Treated from Promega (catalog #L-4960) with slight modifications to the manufacturer’s protocol. Compounds were serial diluted in 0.5 mL microcentrifuge tubes by mixing and transferring 50 µL from the highest concentration to 50 µL of water, mixing and transferring 50 µL of this 2-fold dilution to 50 µL of water. This mixing and transferring was repeated so that there are a total of 8 tubes with serial dilutions of compound at 10× the desired screening concentration that are ultimately diluted to 1× by the addition of rabbit reticulocyte luciferase synthesis mixture. Serial dilutions of compounds were added (2.5 µL) to wells in a black round bottom 96-well plate. Water (2.5 µL) was used as a “no inhibitor” control in 4 wells/plate. No RNA control reaction mixture (2 µL; see below) was used as a control in 4 wells/plate for background luminescence. Rabbit reticulocyte luciferase synthesis mixture (22.5 µL; see below) was added to wells with compounds or water mixture and incubated at 30° C. for 90 minutes. Luciferase assay reagent (25 µL) was added with luminescence measured using a BioTek Synergy HTX plate reader. % Inhibition was determined relative to no inhibitor controls.
Rabbit reticulocyte luciferase synthesis mixture: • 1,000 µL rabbit reticulocyte lysate • 5.7 µL Luciferase Control RNA (1 µg/ µL) • 26 µL complete amino acid mixture • 395 µL water
No RNA Control • 70 µL rabbit reticulocyte lysate • 2 µL complete amino acid mixture • 28 µL water

[3] = CAMHB supplemented with sodium bicarbonate 25 mM, read-out: Sa + bicarb 25 (MIC)
[4] = CAMHB supplemented with sodium bicarbonate 25 mM, read-out: E.coli + bicarb 25 (MIC)
[5] = CAMHB supplemented with sodium bicarbonate 25 mM, read-out: Pa +bicarb 25 (MIC)
[6] = CAMHB supplemented with sodium bicarbonate 25 mM, read-out: Ab +bicarb 25 (MIC)
[7] = CAMHB supplemented with sodium bicarbonate 25 mM, read-out: Ef +bicarb 25 (MIC)
[8] = CAMHB supplemented with sodium bicarbonate 6.25 mM, read-out: Sa + bicarb 6.25 (MIC)
[9] = CAMHB supplemented with sodium bicarbonate 6.25 mM, read-out: E. coli + bicarb 6.25 (MIC)
[10] = CAMHB supplemented with sodium bicarbonate 6.25 mM, read-out: Pa +bicarb 6.25 (MIC)
[11] = CAMHB supplemented with sodium bicarbonate 6.25 mM, read-out: Ab +bicarb 6.25 (MIC)
[12] = CAMHB supplemented with sodium bicarbonate 6.25 mM, read-out: Ef +bicarb 6.25 (MIC)

SMILES	MIC (S.aureus (Sa); [3]) [µg/mL]	MIC (E.coli (Ec); [4]) [µg/mL]	MIC (P.aeruginosa (Pa); [5]) [µg/mL]	MIC (A.baumannii (Ab); [6]) [µg/mL]	MIC (E.faecalis (Ef); [7]) [µg/mL]	pIC50 [1]	pIC50 [2]	MIC (S.aureus (Sa); [8]) [µg/mL]	MIC (E.coli (Ec); [9]) [µg/mL]	MIC (P.aeruginosa (Pa); [10]) [µg/mL]	MIC (A.baumannii (Ab); [11]) [µg/mL]	MIC (E.faecalis (Ef); [12]) [µg/mL]	MIC (S.aureus (Sa); read-out: Sa + bicarb 6.25 (MIC)) [µg/mL]	MIC (E.coli (Ec); read-out: E. coli + bicarb 6.25 (MIC)) [µg/mL]	MIC (P.aeruginosa (Pa); read-out: Pa +bicarb 6.25 (MIC)) [µg/mL]	MIC (A.baumannii (Ab); read-out: Ab +bicarb 6.25 (MIC)) [µg/mL]	MIC (E.faecalis (Ef); read-out: Ef +bicarb 6.25 (MIC)) [µg/mL]
CN(C1CCc2cc(-n3ccc(NC(=O)N4CCN(C(=O)C(C)(C)N)CC4)nc3=O)ccc2C1)[C@H]1CC[C@H](N)C1 (stereo partly drawn) [Compound 19, Hydrochloride Salt]	< 8	< 8	8 to 32	8 to 32	< 8	> 6.30	≤ 6.00	–	–	–	–	–	–	–	–	–	–
CCN(C1CCc2cc(-n3ccc(NC(=O)N4CCN(C(=O)C(C)(C)N)CC4)nc3=O)ccc2C1)[C@H]1CC[C@H](N)C1 (stereo partly drawn) [Compound 20]	< 8	< 8	8 to 32 (≈ 14.2 to 56.7 µM)	8 to 32 (≈ 14.2 to 56.7 µM)	< 8	> 6.30	≤ 6.00	–	–	–	–	–	–	–	–	–	–
CC(C)(N)C(=O)N1CCN(C(=O)Nc2ccn(-c3ccc4c(c3)CCC(N(CC3CC3)[C@H]3CC[C@H](N)C3)C4)c(=O)n2)CC1 (stereo partly drawn) [Compound 21]	< 8	< 8	8 to 32 (≈ 13.5 to 54.2 µM)	8 to 32 (≈ 13.5 to 54.2 µM)	< 8	> 6.30	≤ 6.00	–	–	–	–	–	–	–	–	–	–
CC(C)(N)C(=O)N1CCN(C(=O)Nc2ccn(-c3ccc4c(c3)OCC(N3CCCC(N)CC3)C4)c(=O)n2)CC1 (stereo not drawn) [Compound 22]	–	–	–	–	–	6.00 to 6.30	≤ 6.00	8 to 32	< 8	> 32	> 32	> 32	–	–	–	–	–
CC(C)(N)C(=O)N1CCN(C(=O)Nc2ccn(-c3ccc4c(c3)OCC(N3CC5CC5(CN)C3)C4)c(=O)n2)CC1 (stereo not drawn) [Compound 23]	–	–	–	–	–	≤ 6.00	≤ 6.00	> 32	8 to 32	> 32	> 32	> 32	–	–	–	–	–
CC(C)(N)C(=O)N1CCN(C(=O)Nc2ccn(-c3ccc4c(c3)CCC(N[C@@H]3CC[C@@H](N)C3)C4)c(=O)n2)CC1 (stereo partly drawn) [Compound 25]	–	–	–	–	–	> 6.30	≤ 6.00	–	–	–	–	–	< 8	< 8	> 32	> 32	> 32
CC(C)(N)C(=O)N1CCN(C(=O)Nc2ccn(-c3ccc4c(c3)CCC(N[C@H]3CC[C@@H](N)C3)C4)c(=O)n2)CC1 (stereo partly drawn) [Compound 26]	–	–	–	–	–	> 6.30	≤ 6.00	< 8	< 8	> 32	> 32	> 32	–	–	–	–	–
CC(C)(N)C(=O)N1CCN(C(=O)Nc2ccn(-c3ccc4c(c3)CCC(N[C@H]3C[C@H](N)C3)C4)c(=O)n2)CC1 (stereo partly drawn) [Compound 29]	–	–	–	–	–	> 6.30	≤ 6.00	< 8	< 8	> 32	> 32	8 to 32 (≈ 15.3 to 61.2 µM)	–	–	–	–	–
CC(C)(N)C(=O)N1CCN(C(=O)Nc2ccn(-c3ccc4c(c3)CCC(N[C@H]3C[C@@H](N)C3)C4)c(=O)n2)CC1 (stereo partly drawn) [Compound 30, 4-Amino-2-Methylpropanoyl)-N-(1-(6-(((Cis-3-Aminocyclobutyl)Amino)-5,6,7,8-Tetrahydronaphthalen-2-Yl)-2-Oxo-1,2-Dihydropyrimidin-4-Yl)Piperazine-1-Carboxamide Hydrochloride Salt]	–	–	–	–	–	> 6.30	≤ 6.00	< 8	< 8	> 32	> 32	8 to 32	–	–	–	–	–
CC(C)(N)C(=O)N1CCN(C(=O)Nc2ccn(-c3ccc4c(c3)CCC(NC[C@H]3C[C@H](N)C3)C4)c(=O)n2)CC1 (stereo partly drawn) [Compound 31]	–	–	–	–	–	> 6.30	≤ 6.00	< 8	< 8	> 32	> 32	8 to 32 (≈ 14.9 to 59.6 µM)	–	–	–	–	–
CC(C)(N)C(=O)N1CCN(C(=O)Nc2ccn(-c3ccc4c(c3)CCC(NC[C@H]3C[C@@H](N)C3)C4)c(=O)n2)CC1 (stereo partly drawn) [Compound 32]	–	–	–	–	–	> 6.30	≤ 6.00	< 8	< 8	> 32	> 32	8 to 32 (≈ 14.9 to 59.6 µM)	–	–	–	–	–
CC(C)(N)C(=O)N1CCN(C(=O)Nc2ccn(-c3ccc4c(c3)CCN(C3CCC(N)CC3)C4)c(=O)n2)CC1 (stereo not drawn) [Compound 35]	–	–	–	–	–	> 6.30	≤ 6.00	< 8	< 8	> 32	> 32	> 32	–	–	–	–	–
